This note sets out measurements from ChEMBL document CHEMBL1201862, “PubChem BioAssay data set” (2004).

Test systems include NCI/ADR-RES; TK-10; MDA-N; HL-60; UO-31; MCF7; HCT-15; RXF 393; SNB-75; A498; HOP-62; T47D; NCI-H522; MDA-MB-435; EKVX; K562; HT-29; CCRF-CEM; 786-0; HCC 2998.
Holding throughout (test): inhibition of tumour cell growth, NCI panel, 48 h

Molecules are shown by their SMILES. Structures can show the parent of a compound that is named as a salt.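 Assay format: 96-well plates, 48-hour exposure. GI50: concentration for 50% inhibition of growth.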 Active and inactive are the calls of the source. No stated cut-off is given here; in the data, active = GI50 up to about 1.1 µM and inactive = higher. A value given as a limit tells only on which side of the number the result lay.

On to `CN1[C@@H]2CC[C@H]1C[C@@H](OC(c1ccccc1)c1ccccc1)C2` [BENZTROPINE MESYLATE], for which the GI50 is 16.2 µM (inactive) with NCI/ADR-RES; 17.3 µM (inactive) in the test with TK-10; 15.1 µM (inactive) with MDA-N; 18.2 µM (inactive) in the test on HL-60; 15.3 µM (inactive) in the test on UO-31; 13.9 µM (inactive) in the test on MCF7. In addition, the GI50 is 22.5 µM in the test on HCT-15; 15.5 µM (inactive) in the test with RXF 393; 17.3 µM (inactive) with SNB-75; 14 µM (inactive) in the test with A498; 15.6 µM (inactive) in the test with HOP-62; 17.3 µM (inactive) with T47D. For the same compound, the GI50 with NCI-H522 was 14.9 µM (inactive); in the test with MDA-MB-435, 13.9 µM (inactive); with EKVX, 31.6 µM (inactive); in the test on K562, 13.1 µM (inactive); with HT-29 it was 11 µM (inactive); with CCRF-CEM it was 14 µM (inactive). For the same compound, the GI50 with 786-0 was 14 µM (inactive).

For the compound `Cc1cc2nc3[nH]c4c(Cl)cc(Cl)cc4c3nc2cc1C`, the GI50 in the test on NCI/ADR-RES is > 100 µM (inactive); in the test with TK-10 it was 17.3 µM (inactive); with MDA-N, > 100 µM (inactive); in the test with HL-60 it was > 100 µM (inactive); in the test on UO-31, > 100 µM (inactive); in the test with MCF7 it was > 100 µM (inactive). Besides, the GI50 was greater than 100 µM in the test on HCT-15; 31.6 µM (inactive) in the test on RXF 393; 9.12 µM (inactive) in the test with SNB-75; > 100 µM (inactive) in the test on A498; > 100 µM (inactive) with HOP-62; > 100 µM (inactive) with T47D. Further, the GI50 in the test on NCI-H522 was > 100 µM (inactive); in the test on MDA-MB-435, > 100 µM (inactive); with EKVX, > 100 µM (inactive); in the test on K562 it was > 100 µM (inactive); in the test on HT-29 it was > 100 µM (inactive); in the test with CCRF-CEM, 72.3 µM (inactive). In addition, the GI50 with 786-0 was > 100 µM (inactive).

In the case of `C=C(C)C1(Sc2ccc(OC)cc2)CC1`, the GI50 in the test with NCI/ADR-RES was 37.4 µM (inactive); in the test on TK-10, 48.1 µM (inactive); in the test with MDA-N, 15.6 µM (inactive); in the test on HL-60, 17 µM (inactive); in the test on UO-31, 12.2 µM (inactive); in the test on MCF7, 32.3 µM (inactive). The GI50 in the test on HCT-15 is 24.4 µM; in the test on RXF 393 it was 17.6 µM (inactive); in the test with HCC 2998, 14.5 µM (inactive); with SNB-75, 21.9 µM (inactive); in the test on A498, 29.3 µM (inactive); in the test with HOP-62 it was 34.1 µM (inactive). The GI50 with T47D was 31.9 µM (inactive); in the test on MDA-MB-435 it was 7.94 µM (inactive); in the test with EKVX, 27.6 µM (inactive); in the test with K562 it was 14.9 µM (inactive); with HT-29, 22.3 µM (inactive); in the test with CCRF-CEM, 17.5 µM (inactive). Moreover, in the test on 786-0, the GI50 is 29.6 µM (inactive).

`Fc1ccccc1-c1cc(S)c2cc3c(cc2n1)OCO3`: the GI50 in the test with NCI/ADR-RES was 4.26 µM (inactive); in the test with TK-10, > 48.3 µM (inactive); in the test with MDA-N, 3.03 µM (inactive); in the test on UO-31, 27.5 µM (inactive); with MCF7 it was 4.88 µM (inactive); with HCT-15, 5.65 µM. In addition, the GI50 in the test with RXF 393 was > 54.2 µM (inactive); in the test on HCC 2998, 5.53 µM (inactive); in the test on A498, 10.4 µM (inactive); in the test on HOP-62, > 70.5 µM (inactive); with T47D it was 28.1 µM (inactive); in the test on NCI-H522, 13.8 µM (inactive). Moreover, the GI50 in the test with MDA-MB-435 was 3.59 µM (inactive); with EKVX, 10.5 µM (inactive); with K562 it was 13.1 µM (inactive); in the test on HT-29, 17.2 µM (inactive); with CCRF-CEM, 13.4 µM (inactive); in the test on 786-0, 10.4 µM (inactive).
